Reference: publication PMC12702354, “Engineered an ultrasmall curcumin oral nanoformulation restores intestinal integrity and gut microbiota dysbiosis” (Materials Today Bio, 2025)

Key:
[1] = Stability in SIF (pancreatin + bile salts); assay type: physicochemical; details: 24 h
Method: To examine the breakdown of nGM@CUR-UsNF and cGM@CUR-UsNF in SGF and SIF, Fӧrster resonance energy transfer (FRET) analysis was conducted. Formulations co-loaded with HIQ and NR (FRET pairs) were prepared by mixing galactomannan or cGM with HIQ (1 mg/mL) and NR (0.4 mg/mL), followed by sonication 150 W and 25 kHz in an ice-water bath and then filtered using a 0.1 μm membrane. Ultimately, the HIQ/NR@cGM was produced by exposing it to a 253.7 nm UV light at 36 W for 90 min. The control sample of HIQ/NR@GM was also prepared. The PS, PDI, and ZP of the prepared formulations were assessed through dynamic laser scattering. The LE was also determined. The prepared formulations were mixed with SGF or SIF in tubes. […] Fluorescence intensities were captured using a SYNERGY/HTX (BioTek, Germany) with the excitation at 510 nm and emission at 635 nm. The FRET ratio was determined using the formula FRET ratio = INR/(INR + IHIQ), where IHIQ and INR represented the fluorescence intensities of HIQ and NR at 510 nm and 635 nm, respectively, with an excitation wavelength of 450 nm. […] CUR retention was measured using HPLC following the separation of the released drug, while particle size was assessed through DLS analysis. The stability of the polymer was evaluated using gel permeation chromatography and a reducing sugar assay. […]

[2] = Storage stability of UsNFs in MQW over 180 days at 37 °C; assay type: physicochemical; details: 37 ± 1 °C
Method: The release kinetics of CUR from the UsNFs was also measured for 24 h in simulated gastric fluid (SGF; pH 2.5) and simulated intestinal fluid (SIF; pH 7.0) at 37 ± 1 °C (Fig. 2F). […] Additionally, the stability of UsNFs, which were dissolved at a concentration of 2 mg/mL in MQW, was also tested over 180 days at a temperature of 37 ± 1 °C (Fig. 2G and H). […] The autoxidation, hydrolysis, and degradation-induced content loss of CUR is a significant issue.

[3] = system: faecal metabolites of gut bacteria; test: Faecal metabolome analysis (GC-MS) in VAN-induced mice; assay type: in vivo, C57BL/6 mice; details: faeces, VAN vs treated group, n = 5
Method: The extract of faecal samples (40 mg/ml methanol) was prepared as described in the previous method. The obtained dry extract was derivatized with methoxyamine-HCl and BSTFA (Sigma-Aldrich, USA), followed by incubation for 1 h at 37 °C. Subsequently, the supernatant (10 μl) obtained after centrifugation at 10,000×g for 12 min was injected into an Agilent GC-MS. The injector, transfer line, and ion source were set at 280 °C, 150 °C and 230 °C, respectively. At the beginning, we set the oven temperature to 60 °C, and then increased at 60 °C/min for 2 min, followed by an increase at the rate of 10 °C/min until reaching 300 °C.

- CUR retained [1]: less than 10%
- CUR content remaining after storage [2]: 27%
- CUR degradation during storage [2]: over 73%
SMILES: COc1cc(/C=C/C(=O)CC(=O)/C=C/c2ccc(O)c(OC)c2)ccc1O [free-CUR, curcumin]
- Fold change, 2,4,5-Trihydroxypentanoic acid [3]: 0.778
- Fold change, 2-Hydroxyglutaric acid [3]: 3.491
- Fold change, 4-Aminobutyric acid [3]: 0.998
- Fold change, 4-Hydroxy-3-methoxybenzoic acid [3]: 0.619
- Fold change, 4-Hydroxyproline [3]: 0.924
- Fold change, 5-Aminovaleric acid [3]: 1.101
- Fold change, 9,12,15-Octadecatrienoic acid [3]: 1.217
- Fold change, 9-(Z)-Hexadecenoic acid [3]: 1.102
- Fold change, Acetate [3]: 0.733
- Fold change, Adenine [3]: 0.325
- Fold change, Alanine [3]: 0.743
- Fold change, Arabitol [3]: 0.432
- Fold change, Aspartic acid [3]: 3.075
- Fold change, Azelaic acid [3]: 0.849
- Fold change, Benzenepropanoic acid [3]: 0.368
- Fold change, Butyrate [3]: 0.168
- Fold change, Cholesta-8,24-dien-3-ol, 4-methyl-, (3β,4α) [3]: 1.313
- Fold change, D-fructose [3]: 1.400
- Fold change, D-glucose [3]: 1.069
- Fold change, Eicosanoic acid [3]: 0.404
- Fold change, Erythronic acid [3]: 1.754
- Fold change, Ethanolamine [3]: 1.266
- Fold change, Fucose [3]: 0.580
- Fold change, Galacturonic acid [3]: 1.024
- Fold change, Gentiobiose [3]: 2.357
- Fold change, Gluconic acid [3]: 1.119
- Fold change, Glutaric acid [3]: 0.708
- Fold change, Glycerol [3]: 0.926
- Fold change, Glycerol-3-phosphate [3]: 2.032
- Fold change, Glycolic acid [3]: 2.144
- Fold change, Hexadecanoic acid [3]: 1.155
- Fold change, Hexanoic acid [3]: 1.359
- Fold change, Homoserine [3]: 2.352
- Fold change, Hypoxanthine [3]: 0.916
- Fold change, Isoleucine [3]: 1.058
- Fold change, L-rhamnose [3]: 0.191
- Fold change, Lactic acid [3]: 0.573
- Fold change, Leucine [3]: 0.704
- Fold change, Lysine [3]: 0.526
- Fold change, Methionine [3]: 1.121
- Fold change, Nicotinic acid [3]: 0.616
- Fold change, Octadecadienoic acid [3]: 1.285
- Fold change, Ornithine [3]: 0.453
- Fold change, Orotic acid [3]: 1.443
- Fold change, Pantothenic acid [3]: 0.519
- Fold change, Pentadecanoic acid [3]: 0.271
- Fold change, Phenylalanine [3]: 0.989
- Fold change, Phosphoric acid [3]: 1.212
- Fold change, Propionate [3]: 1.530
- Fold change, Ribitol [3]: 1.340
- Fold change, Serine [3]: 0.538
- Fold change, Sorbitol [3]: 1.816
- Fold change, Tetradecanoic acid [3]: 0.349
- Fold change, Threitol [3]: 2.116
- Fold change, Threonic acid [3]: 1.362
- Fold change, Threonine [3]: 1.275
- Fold change, Thymine [3]: 1.214
- Fold change, Tricosadiynoic acid [3]: 0.767
- Fold change, Tryptophan [3]: 1.117
- Fold change, Uracil [3]: 0.561
- Fold change, Uric acid [3]: 0.772
- Fold change, beta-Alanine [3]: 1.217
- Fold change, myo-Inositol [3]: 2.179
- Fold change, myo-Inositol-1-phosphate [3]: 0.584
